Reference: the supplement of paper PMC10307832

How the values were obtained:
Test in all cases: relative viability (nuclei count vs DMSO), 5 days (fraction); higher = more cells survive
Imatinib + Linsitinib = compound: Cc1ccc(NC(=O)c2ccc(CN3CCN(C)CC3)cc2)cc1Nc1nccc(-c2cccnc2)n1 [Imatinib] + C[C@]1(O)C[C@@H](c2nc(-c3ccc4ccc(-c5ccccc5)nc4c3)c3c(N)nccn32)C1 [Linsitinib] (partner 1 µM)
Outline: (§1)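 Relative viability divides the nuclei count in treated wells by that in vehicle wells. Lung cancer cell lines were seeded in 1536-well plates, dosed by pin tool the next day, and fixed and stained after 5 days in one step with final 0.05% Triton X-100, 1% formaldehyde and 1 ug/ml Hoechst. Dosing was a single drug or a fixed anchor-drug dose plus five library-drug doses (not always all listed) in √10 steps, and values are medians of duplicate plates imaged at 4×.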

Imatinib + Lapatinib = compound: Cc1ccc(NC(=O)c2ccc(CN3CCN(C)CC3)cc2)cc1Nc1nccc(-c2cccnc2)n1 [Imatinib] + CS(=O)(=O)CCNCc1ccc(-c2ccc3ncnc(Nc4ccc(OCc5cccc(F)c5)c(Cl)c4)c3c2)o1 [Lapatinib] (partner 2 µM)
Outline: as §1

Imatinib + Decitabine = compound: Cc1ccc(NC(=O)c2ccc(CN3CCN(C)CC3)cc2)cc1Nc1nccc(-c2cccnc2)n1 [Imatinib] + Nc1ncn([C@H]2C[C@H](O)[C@@H](CO)O2)c(=O)n1 [Decitabine] (partner 2 µM)
Outline: as §1

Imatinib + Tozasertib = compound: Cc1ccc(NC(=O)c2ccc(CN3CCN(C)CC3)cc2)cc1Nc1nccc(-c2cccnc2)n1 [Imatinib] + Cc1cc(Nc2cc(N3CCN(C)CC3)nc(Sc3ccc(NC(=O)C4CC4)cc3)n2)n[nH]1 [Tozasertib] (partner 0.1 µM)
Outline: as §1

| Cell Line | relative viability (Imatinib + Linsitinib; first compound 0.02 µM) | relative viability (Imatinib + Linsitinib; first compound 0.06325 µM) | relative viability (Imatinib + Linsitinib; first compound 0.2 µM) | relative viability (Imatinib + Linsitinib; first compound 0.6325 µM) | relative viability (Imatinib + Linsitinib; first compound 2 µM) | relative viability (Imatinib + Lapatinib; first compound 0.02 µM) | relative viability (Imatinib + Lapatinib; first compound 0.06325 µM) | relative viability (Imatinib + Lapatinib; first compound 0.2 µM) | relative viability (Imatinib + Lapatinib; first compound 0.6325 µM) | relative viability (Imatinib + Lapatinib; first compound 2 µM) | relative viability (Imatinib + Decitabine; first compound 0.02 µM) | relative viability (Imatinib + Decitabine; first compound 0.06325 µM) | relative viability (Imatinib + Decitabine; first compound 0.2 µM) | relative viability (Imatinib + Decitabine; first compound 0.6325 µM) | relative viability (Imatinib + Decitabine; first compound 2 µM) | relative viability (Imatinib + Tozasertib; first compound 0.02 µM) | relative viability (Imatinib + Tozasertib; first compound 0.06325 µM) | relative viability (Imatinib + Tozasertib; first compound 0.2 µM) | relative viability (Imatinib + Tozasertib; first compound 0.6325 µM) | relative viability (Imatinib + Tozasertib; first compound 2 µM) |
| --- | --- | --- | --- | --- | --- | --- | --- | --- | --- | --- | --- | --- | --- | --- | --- | --- | --- | --- | --- | --- |
| NCI-H650 | 1.27 | 0.86 | 0.95 | 1.05 | 0.861 | 1.02 | 1.16 | 1 | 1.11 | 0.85 | 0.299 | 0.36 | 0.291 | 0.313 | 0.262 | 0.832 | 0.682 | 0.851 | 0.697 | 0.764 |
| NCI-H2170 |  |  |  |  |  | 0.266 | 0.28 | 0.282 | 0.263 | 0.245 | 0.463 | 0.492 | 0.486 | 0.454 | 0.458 | 0.872 | 0.872 | 0.752 | 0.585 | 0.712 |
| NCI-H441 | 0.644 | 0.485 | 0.573 | 0.47 | 0.546 |  |  |  |  |  | 0.252 | 0.234 | 0.249 | 0.26 | 0.268 | 0.58 | 0.644 | 0.667 | 0.612 | 0.412 |
| HCC-366 | 0.685 |  | 1.02 | 0.692 | 0.844 | 1.3 |  | 1.33 | 1.03 | 1.04 | 0.324 | 0.366 | 0.356 | 0.374 | 0.329 | 0.193 |  | 0.109 | 0.0574 | 0.0718 |
| NCI-H2009 | 1.19 | 1.32 | 1.21 | 1.24 | 1.24 | 0.974 | 0.442 | 1.05 | 0.87 | 0.939 | 0.434 | 0.346 | 0.346 | 0.425 | 0.363 | 0.832 |  | 0.765 | 0.71 | 0.711 |
| NCI-H1792 | 0.623 | 0.332 | 0.502 | 0.317 | 0.566 | 0.859 | 1.08 | 0.954 | 0.942 | 0.838 | 0.573 | 0.496 | 0.576 |  | 0.449 |  |  |  |  |  |
| SW 900 |  |  |  |  |  |  |  |  |  |  | 0.37 | 0.467 | 0.499 | 0.468 | 0.411 | 0.51 | 0.404 | 0.712 | 0.469 | 0.348 |
| COR-L23 | 1.14 | 1.01 | 1.18 | 0.895 | 1.04 | 1.13 | 0.791 | 1.41 | 0.922 | 0.829 | 0.382 | 0.507 | 0.474 | 0.409 | 0.455 | 0.226 | 0.174 | 0.165 | 0.161 | 0.154 |
| SK-LU-1 | 1.58 | 1.22 | 1.15 |  | 0.951 | 1.08 | 1.1 | 1.11 |  | 0.82 | 0.686 | 0.543 | 0.588 | 0.598 | 0.645 | 0.336 | 0.322 | 0.316 | 0.303 | 0.28 |
| NCI-H23 | 0.535 | 0.641 | 0.588 | 0.546 | 0.598 | 1.2 | 0.959 | 1.11 |  | 1.13 | 0.319 | 0.31 | 0.299 | 0.287 | 0.355 | 0.441 | 0.37 | 0.322 | 0.285 | 0.269 |
| NCI-H1944 | 1.21 |  | 1.12 | 1.07 | 1.18 | 0.8 |  | 0.991 | 0.853 | 0.771 | 0.427 | 0.394 | 0.474 | 0.401 | 0.444 | 0.259 | 0.401 | 0.253 | 0.236 | 0.262 |
| NCI-H661 | 0.553 | 0.345 | 0.611 | 0.362 | 0.56 | 0.434 | 0.296 | 0.546 | 0.19 | 0.481 | 0.597 | 0.592 | 0.532 | 0.585 | 0.613 | 0.383 | 0.393 | 0.365 | 0.344 | 0.347 |
| NCI-H1395 | 0.978 |  | 1.04 | 1.02 | 0.975 | 0.956 |  |  | 0.988 | 1.19 | 0.754 |  | 0.656 | 0.678 | 0.69 | 0.679 | 0.773 | 0.76 | 0.663 | 0.7 |
| LCLC-97TM1 |  |  | 0.204 | 0.179 | 0.184 |  |  | 0.958 | 0.878 | 0.734 | 0.208 |  | 0.253 | 0.216 | 0.226 | 0.236 |  | 0.14 | 0.2 | 0.214 |
| EPLC-272H | 1.28 |  | 1.24 | 1.23 | 1.02 | 0.779 |  | 0.97 | 1.17 | 0.835 | 0.327 |  |  | 0.408 | 0.33 | 0.366 |  | 0.256 | 0.258 | 0.207 |
| EKVX | 1.09 |  | 0.968 | 1.02 | 1.12 | 0.222 | 0.189 | 0.197 | 0.208 | 0.197 | 0.325 |  | 0.375 | 0.352 |  |  | 0.389 | 0.348 | 0.287 | 0.354 |
| NCI-H1975 | 0.977 | 0.965 | 1.07 | 0.843 | 0.958 | 1.01 | 1.04 | 1.03 | 1.03 |  | 0.365 | 0.373 | 0.369 | 0.38 | 0.365 | 0.976 | 0.774 | 0.493 | 0.255 | 0.188 |
| NCI-H322M | 1.01 | 0.895 |  | 0.891 | 0.981 | 0.613 | 0.61 | 0.656 | 0.534 | 0.63 | 0.751 | 0.692 | 0.661 | 0.655 | 0.756 | 0.483 | 0.507 | 0.491 | 0.432 | 0.471 |
| NCI-H2347 | 0.943 | 0.839 | 0.965 |  | 0.978 | 0.995 | 0.913 | 1.05 | 1.04 | 0.91 | 0.58 |  | 0.653 | 0.615 | 0.632 |  | 0.521 | 0.499 | 0.446 | 0.407 |
